Assay: Solubility of drug and excipient in common organic solvent or cosolvent system
Format: physicochemical
Settings: for solubility in Acetone (50%)/Water (50%) (by volume): solvent Acetone (50%)/Water (50%) by volume
From the text: According to the third aspect of the present invention. an organic solvent or cosolvent is selected in which both the hydrophobic drug or other component and the hydrophilic excipient or other component may be dissolved. […] The solvent must further be selected to leave minimum residual solvent in the spray dried process and/or be capable of being adequately removed from the spray dried product. The particular organic solvent or cosolvent selected will depend on the nature of the hydrophobic drug and the hydrophilic excipient.
Each of these formulations has been spray dried and tested as described in further detail in the Experimental section hereinafter.

Row | Compound | solubility in Acetone (50%)/Water (50%) (by volume) | solubility in DMSO (33%)/Acetone (67%) (by volume) (solvent DMSO (33%)/Acetone (67%) by volume) | solubility in Ethanol (solvent Ethanol) | solubility in Methanol (solvent Methanol)
1 | CCCC1O[C@@H]2C[C@H]3[C@@H]4CCC5=CC(=O)C=C[C@]5(C)[C@H]4[C@@H](O)C[C@]3(C)[C@]2(C(=O)CO)O1 (some centres unmarked) [Budesonide] | (adequate solubility) | (good solubility) | (adequate solubility) | (good solubility)
2 | OC[C@@H](O)[C@@H](O)[C@H](O)[C@H](O)CO [Mannitol] | (adequate solubility) |  |  | 
